Patent US9775898B2, “Vaccine composition comprising an immunogenic protein and combination adjuvants for use in eliciting antigen-specific T-cell responses” (TheVax Genetics Vaccine Co., Ltd., priority 2015, dated 2017)

Tests used:
CD91 = CD91 (Homo sapiens, UniProt Q07954); conditions: read-out: binding affinity to CD91 (Kd); cited from earlier work
[1] = system: E7 antigen specific immune response; assay: Immunogenicity analysis of different immunogenic composition (humoral and cell mediated); type: in vivo; conditions: mice

Chain of CD91 (Q07954 20-4544, species assumed): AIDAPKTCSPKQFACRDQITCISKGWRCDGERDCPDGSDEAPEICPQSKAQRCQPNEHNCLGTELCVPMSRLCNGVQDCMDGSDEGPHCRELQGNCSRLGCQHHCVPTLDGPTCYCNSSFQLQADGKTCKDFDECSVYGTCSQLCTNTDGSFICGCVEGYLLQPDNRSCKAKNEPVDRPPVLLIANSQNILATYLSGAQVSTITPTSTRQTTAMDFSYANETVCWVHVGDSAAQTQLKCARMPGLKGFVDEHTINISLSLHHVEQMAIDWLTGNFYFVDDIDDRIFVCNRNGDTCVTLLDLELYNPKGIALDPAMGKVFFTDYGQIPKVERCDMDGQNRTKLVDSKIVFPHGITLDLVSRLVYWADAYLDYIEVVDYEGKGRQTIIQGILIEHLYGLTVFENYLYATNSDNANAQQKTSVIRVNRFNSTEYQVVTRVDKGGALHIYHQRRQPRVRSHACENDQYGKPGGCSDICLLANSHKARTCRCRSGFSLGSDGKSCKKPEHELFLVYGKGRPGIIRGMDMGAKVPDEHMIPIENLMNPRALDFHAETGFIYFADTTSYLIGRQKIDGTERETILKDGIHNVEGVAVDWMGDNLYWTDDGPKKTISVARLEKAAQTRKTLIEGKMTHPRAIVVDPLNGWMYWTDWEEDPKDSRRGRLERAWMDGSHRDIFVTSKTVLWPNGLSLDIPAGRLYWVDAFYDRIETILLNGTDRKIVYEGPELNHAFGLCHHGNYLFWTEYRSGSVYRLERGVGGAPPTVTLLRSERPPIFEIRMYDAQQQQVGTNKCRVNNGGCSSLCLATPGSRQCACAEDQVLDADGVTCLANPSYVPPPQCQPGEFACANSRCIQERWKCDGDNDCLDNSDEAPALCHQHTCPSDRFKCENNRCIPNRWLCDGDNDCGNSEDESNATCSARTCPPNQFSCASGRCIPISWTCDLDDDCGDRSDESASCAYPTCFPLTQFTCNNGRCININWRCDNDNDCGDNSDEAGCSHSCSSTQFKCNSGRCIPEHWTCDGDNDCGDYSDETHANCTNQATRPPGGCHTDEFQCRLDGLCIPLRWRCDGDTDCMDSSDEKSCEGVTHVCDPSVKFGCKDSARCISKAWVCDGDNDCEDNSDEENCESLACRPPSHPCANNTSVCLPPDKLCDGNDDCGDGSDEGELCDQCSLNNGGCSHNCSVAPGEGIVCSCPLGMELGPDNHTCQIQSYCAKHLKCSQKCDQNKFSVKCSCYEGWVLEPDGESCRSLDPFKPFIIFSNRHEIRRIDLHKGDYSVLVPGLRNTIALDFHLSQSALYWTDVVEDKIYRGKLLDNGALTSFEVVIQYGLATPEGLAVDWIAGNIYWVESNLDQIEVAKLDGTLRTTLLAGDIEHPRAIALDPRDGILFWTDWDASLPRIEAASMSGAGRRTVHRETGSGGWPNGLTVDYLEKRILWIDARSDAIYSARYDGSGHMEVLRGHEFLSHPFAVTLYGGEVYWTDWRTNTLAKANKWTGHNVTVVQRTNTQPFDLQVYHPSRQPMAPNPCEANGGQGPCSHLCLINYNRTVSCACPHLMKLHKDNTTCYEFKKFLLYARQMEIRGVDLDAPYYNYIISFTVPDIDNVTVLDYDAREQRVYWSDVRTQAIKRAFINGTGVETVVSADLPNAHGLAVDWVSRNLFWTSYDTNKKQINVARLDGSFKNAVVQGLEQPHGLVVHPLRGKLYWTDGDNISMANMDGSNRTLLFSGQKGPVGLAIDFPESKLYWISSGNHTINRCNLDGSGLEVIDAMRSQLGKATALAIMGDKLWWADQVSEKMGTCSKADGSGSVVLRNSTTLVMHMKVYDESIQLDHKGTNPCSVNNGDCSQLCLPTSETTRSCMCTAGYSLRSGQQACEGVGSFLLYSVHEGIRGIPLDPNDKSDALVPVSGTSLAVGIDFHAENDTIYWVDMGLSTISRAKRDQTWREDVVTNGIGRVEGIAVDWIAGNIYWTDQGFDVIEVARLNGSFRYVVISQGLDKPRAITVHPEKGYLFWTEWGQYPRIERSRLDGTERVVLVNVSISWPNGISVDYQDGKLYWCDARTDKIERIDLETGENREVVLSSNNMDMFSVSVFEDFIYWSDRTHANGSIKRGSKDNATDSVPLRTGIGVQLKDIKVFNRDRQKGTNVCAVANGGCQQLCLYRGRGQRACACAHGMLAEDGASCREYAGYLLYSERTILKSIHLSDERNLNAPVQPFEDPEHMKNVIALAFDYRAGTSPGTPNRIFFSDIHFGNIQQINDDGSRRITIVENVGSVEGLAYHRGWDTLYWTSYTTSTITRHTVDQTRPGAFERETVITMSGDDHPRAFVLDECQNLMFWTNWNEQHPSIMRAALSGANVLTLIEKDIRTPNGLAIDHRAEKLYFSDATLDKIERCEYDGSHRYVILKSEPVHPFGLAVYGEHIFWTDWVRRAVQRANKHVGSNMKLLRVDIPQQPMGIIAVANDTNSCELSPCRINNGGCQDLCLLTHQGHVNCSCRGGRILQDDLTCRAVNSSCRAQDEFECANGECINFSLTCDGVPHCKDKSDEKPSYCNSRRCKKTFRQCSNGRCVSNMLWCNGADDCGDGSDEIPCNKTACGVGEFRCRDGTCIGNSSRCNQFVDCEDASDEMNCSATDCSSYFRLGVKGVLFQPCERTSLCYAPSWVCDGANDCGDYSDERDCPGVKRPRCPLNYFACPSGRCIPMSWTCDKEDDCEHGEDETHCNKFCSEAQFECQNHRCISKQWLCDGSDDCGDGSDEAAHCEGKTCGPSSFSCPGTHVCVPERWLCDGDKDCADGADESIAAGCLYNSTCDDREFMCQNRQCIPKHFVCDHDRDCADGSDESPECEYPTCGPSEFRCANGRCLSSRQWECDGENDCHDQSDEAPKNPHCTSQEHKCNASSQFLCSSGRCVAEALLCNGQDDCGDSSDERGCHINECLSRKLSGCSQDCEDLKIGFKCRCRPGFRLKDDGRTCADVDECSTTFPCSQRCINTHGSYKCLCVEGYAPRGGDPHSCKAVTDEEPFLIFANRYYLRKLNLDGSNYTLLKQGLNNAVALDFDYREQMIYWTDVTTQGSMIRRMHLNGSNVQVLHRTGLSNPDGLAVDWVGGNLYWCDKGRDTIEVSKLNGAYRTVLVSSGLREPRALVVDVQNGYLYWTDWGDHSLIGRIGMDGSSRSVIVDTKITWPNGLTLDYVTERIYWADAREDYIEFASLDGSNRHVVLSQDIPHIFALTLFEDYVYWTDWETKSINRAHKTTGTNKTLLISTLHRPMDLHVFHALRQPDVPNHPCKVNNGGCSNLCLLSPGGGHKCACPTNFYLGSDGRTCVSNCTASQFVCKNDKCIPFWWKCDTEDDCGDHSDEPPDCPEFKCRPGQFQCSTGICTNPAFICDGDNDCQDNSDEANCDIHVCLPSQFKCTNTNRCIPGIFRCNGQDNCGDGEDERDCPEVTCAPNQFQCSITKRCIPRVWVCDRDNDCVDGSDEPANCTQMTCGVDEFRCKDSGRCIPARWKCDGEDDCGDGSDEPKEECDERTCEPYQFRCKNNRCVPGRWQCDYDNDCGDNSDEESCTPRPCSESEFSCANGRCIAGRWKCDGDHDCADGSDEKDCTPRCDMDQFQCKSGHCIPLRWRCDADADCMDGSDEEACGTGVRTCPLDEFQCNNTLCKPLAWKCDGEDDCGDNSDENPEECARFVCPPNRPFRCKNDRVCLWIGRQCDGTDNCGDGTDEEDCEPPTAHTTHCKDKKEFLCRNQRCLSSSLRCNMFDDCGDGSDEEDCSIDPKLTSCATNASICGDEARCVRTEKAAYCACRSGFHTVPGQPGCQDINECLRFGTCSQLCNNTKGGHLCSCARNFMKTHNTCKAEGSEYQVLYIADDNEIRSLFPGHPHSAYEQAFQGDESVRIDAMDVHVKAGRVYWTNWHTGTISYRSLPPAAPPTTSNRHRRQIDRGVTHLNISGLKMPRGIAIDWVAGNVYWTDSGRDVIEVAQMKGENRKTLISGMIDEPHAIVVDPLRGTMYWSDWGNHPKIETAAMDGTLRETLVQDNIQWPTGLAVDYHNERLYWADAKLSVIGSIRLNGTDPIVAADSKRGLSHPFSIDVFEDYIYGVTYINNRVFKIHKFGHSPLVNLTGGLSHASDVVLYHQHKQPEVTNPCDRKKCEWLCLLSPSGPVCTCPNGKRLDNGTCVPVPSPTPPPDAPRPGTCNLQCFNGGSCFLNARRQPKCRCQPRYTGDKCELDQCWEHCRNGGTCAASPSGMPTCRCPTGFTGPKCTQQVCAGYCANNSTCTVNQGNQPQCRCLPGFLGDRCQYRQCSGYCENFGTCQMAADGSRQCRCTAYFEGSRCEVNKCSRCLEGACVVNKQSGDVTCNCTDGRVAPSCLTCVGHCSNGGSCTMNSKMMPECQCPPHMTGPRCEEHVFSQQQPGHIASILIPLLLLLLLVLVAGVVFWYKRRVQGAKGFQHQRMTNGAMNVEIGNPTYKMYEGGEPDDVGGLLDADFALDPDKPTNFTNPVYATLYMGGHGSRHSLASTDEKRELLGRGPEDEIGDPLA

For “RAP1: 39 kDa ER resident protein and molecular chaperone for LDL receptor-related protein”, the Kd (CD91) is listed as roughly 3 nM.

With “E7 antigen: HPV16 E7 protein (full length), SEQ ID NO: 21, antigen itself only” the “E7 antigen specific cell mediated immune response” value ([1]; combined with GPI-0100 or QS-21) was “weak to strong”.

With QS-21 [reference compound] the “adjuvant comparison for stimulating both humoral and cell mediated immune responses” value ([1]; with E7 immunogenic proteins, compared with alum) was “better adjuvants”.
